Data set [1] deals with MOLM-14 cells. In words: Cell survival assay (trypan blue exclusion), MOLM-14. In kind it is cell-based, human. The following applies: 72 hours; at 0.1, 1, 10 and 100 μM. As to the method: MOLM-.14 and THP-1 cells were seeded in 96-well plates and treated with DMSO, mono- and bis-aziridinyl dimeric naphthoquinone compounds, or dimethylamine dimeric naphthoquinone Compound 114 as previously described. Cells were incubated for 72 hours, and then counted using trypan blue exclusion on the Countess® automated cell counter (Life Technologies®). Cell counts were performed in duplicates, and the averages were graphed using GraphPad Prism® software (GraphPad®).
Cell survival was determined using trypan blue exclusion, in which cells are plated and the following day treated similarly to the proliferation assay. The bis-aziridinyl dimeric naphthoquinone Compound 101 was effective in decreasing cell number at increasing concentrations of compound in MOLM-14 and THP1 cells.

Data set [2] is described as follows: Safety and tolerability in NSG mice. In kind it is in vivo. Conditions: female NSG mice; 5, 10 or 15 mg/kg intraperitoneal daily for 5 days, one week observation. As to the method:
Considering the significant antineoplastic, activity of Compound 101, the safety and tolerability of this agent was tested in vivo on female NSG nice. Groups of three female NOD.Cg-Prkdc^scid Il2rg^tm1Wjl/SzJ (NSG) mice were tested with 5, 10 or 15 mg/kg of Compound 101 delivered by intraperitoneal injection daily for 5 consecutive days, and the mice monitored for one additional week. […] An asterisk (*) denotes days of dosing.

The source of these data is patent US11459313B2, “Aziridinyl and amino dimeric naphthoquinone compounds and use for acute myeloid leukemia” (University of Maryland, Baltimore, priority 2016, dated 2022).

Consider `O=C1C(C2=C(N3CC3)C(=O)c3ccccc3C2=O)=C(N2CC2)C(=O)c2ccccc21` [Compound 101, 3,3′-di(aziridin-1-yl)-[2,2′-binaphthalene]-1,1 4,4′-tetrone], for which the “viable cells, MOLM-14” value in data set [1] was “statistically significant (p<0.05) reduction in viable cells”. In data set [2], the “mean body weight loss” value is on record as not above 10% and the tolerability result is “tolerated the compound well with no weight loss observed”.
